In the experiment the target is T1, Kv3.4 (UniProt Q63734).
T1 construct: IC50; other: Kv3.4, logistic dose response fit; effect on Kv3.4 currents; other: 1 mM, bath applied; slope of dose response curve; other: Kv3.4
T1 sequence (Q63734 1-625): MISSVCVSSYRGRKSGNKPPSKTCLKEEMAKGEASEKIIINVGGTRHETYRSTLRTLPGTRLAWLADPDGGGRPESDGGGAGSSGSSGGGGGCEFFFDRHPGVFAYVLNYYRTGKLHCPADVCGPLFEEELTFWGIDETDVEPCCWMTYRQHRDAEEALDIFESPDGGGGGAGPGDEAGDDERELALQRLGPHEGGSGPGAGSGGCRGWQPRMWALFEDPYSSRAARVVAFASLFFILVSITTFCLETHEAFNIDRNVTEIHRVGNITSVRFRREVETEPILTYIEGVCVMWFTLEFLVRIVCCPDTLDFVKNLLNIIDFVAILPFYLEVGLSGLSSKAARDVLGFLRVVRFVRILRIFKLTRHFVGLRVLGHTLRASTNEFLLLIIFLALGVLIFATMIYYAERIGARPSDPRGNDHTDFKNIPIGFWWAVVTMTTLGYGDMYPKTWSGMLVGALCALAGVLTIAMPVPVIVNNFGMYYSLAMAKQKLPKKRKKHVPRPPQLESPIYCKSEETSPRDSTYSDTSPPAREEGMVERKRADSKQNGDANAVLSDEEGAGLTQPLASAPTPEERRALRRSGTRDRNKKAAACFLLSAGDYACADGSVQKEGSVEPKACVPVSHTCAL
Kind of experiment: TEVC of X. laevis oocytes expressing Kv3.4. The class given is cell-based. Particulars: for effect on Kv3.4 currents: 1 mM, bath applied; for slope of dose response curve: Kv3.4; for IC50: Kv3.4, logistic dose response fit. The text has this: Kv2.1 mutants were constructed using the QuickChange Multi Site-Directed Mutagenesis Kit (Stratagene, La Jolla, Calif.). […] For oocyte expression, Kv3.4 was in pBF1, Kv4.2 was in pRAT. cRNA transcripts were produced from SacII-linearized (Kv2.1), Mlullinearized (Kv3.4) and Not1-linearized (Kv4.2) DNA templates using the T3 (Kv2.1), SP6 (Kv3.4) and T7 (Kv4.2) mMessage mMachine kits (Ambion, Austin, Tex.). cRNA was quantified by spectrophotometry and its size integrity verified by gel electophoresis. Defolliculated stage V and VI Xenopus laevis oocytes (purchased from Nasco, Grand Island, N.Y.) were injected with 5 ng of cRNA encoding Kv2.1, Kv3.4 or Kv4.2. Chinese Hamster Ovary (CHO) cells were transfected with 0.25 μg Kv2.1 cDNA, 2 μg blank plasmid and 2 μg Green fluorescent Protein in pBOB using Supetfect transfection reagent (Qiagen) 24 hours before whole-cell voltage clamp studies.
Oocytes were bathed in a small-volume Warner oocyte bath and viewed with a Fisher dissection microscope. Bath solution for whole-cell oocyte recordings was (in mM): 96 NaCl, 4 KCl, 0.7 MgCl2, 1 CaCl2, 10 HEPES (pH 7.4); whole-cell oocyte TEVC pipettes were of 0.2-2 M resistance when filled with 3 M KCl. Experiments were performed 24-48 hours after cRNA injection. For assessment of current-voltage relationships in the absence or presence of dabco derivatives, oocytes were held at −80 mV, stepped for 2 seconds at voltages between −80 mV and +60 mV in 20 mV steps (Kv2.1) or between −80 and +50 mV in 10 mV steps (Kv3.4), then held for 500 ms at −40 mV before returning to the holding potential. For assessment of block during wash-in of dabco derivatives at a single voltage, oocytes were held at −80 mV, and repetitively stepped to 0 mV for 2 s with an interpulse interval of 10 s or 60 s as indicated. A range of concentrations of dabco or dabco derivatives were washed in via the bath solution during repetitive single-voltage pulses (after an initial period of 5 pulses with control solution to ensure current stabilization) until equilibrium block was achieved, to establish dose-responses. […] Washout was performed after the highest concentration of blocker was washed in. In cases where washout was achieved, only those recordings in which current returned to within 10% of original current level were used for construction of dose-response curves. […] As controls for this protection analysis, JC638.2a or MTSET were washed in alone until equilibrium block, then washed out.
Data analysis: Current-voltage relationships were obtained by measuring peak current during depolarizing pulses. Inhibition constants for DABCO blockers were calculated after generating a dose response curve by fitting with a logistic dose-response function y=A2+[A1−A2/1+(x/x0)^p], where A1 is the maximum response plateau, A2 is the minimum response plateau, x is drug concentrator, x0 is the IC50, and p the Hill slope. Data analysis was performed using […] 9 (Axon Instruments, Foster City, Calif.) and tabulated in Excel 5.0. Graphs were generated using Origin 6.1. Data are expressed as mean±SEM, with n specifying the number of independent experiments. Statistical significance was assessed by one-way ANOVA with p<0.05 being indicative of significance.

Each structure is given as a SMILES string.

Take `c1cc(C[N+]23CCN(CC2)CC3)ccc1C[N+]12CCN(CC1)CC2` [JC638.2α, α,α′-[bis(4-aza-1-azoniabicyclo[2.2.2]octanyl)]p-xylene]: the “effect on Kv3.4 currents” value was “significant inhibition”, the “slope of dose response curve” value was determined as 1.3±0.2 and 129 ± 20.7 µM corresponded to half-maximal inhibition (IC50).
With `CCCCCCCCCCCC[N+]12CCN(CC1)CC2` [JE188, 1-aza-4-azonia-4-dodecylbicyclo[2.2.2]octane], the “slope of dose response curve” value is given as 0.7±0.1 and inhibition was half-maximal at 34.2 ± 10 µM (IC50).
In the same order, the values of `CCCCCCCCCCCCCCCC[N+]12CCN(CC1)CC2` [TA279, 1-aza-4-azonia-4-hexadecylbicyclo[2.2.2]octane] are 2.8±1.1 and 0.6 ± 0.1 µM.
Regarding `C(CC[N+]12CCN(CC1)CC2)C[N+]12CCN(CC1)CC2` [TG26], the “effect on Kv3.4 currents” value is listed as “less effective than TG27”.

In general, IC50 refers to the point on the concentration scale where inhibition reaches its midpoint.

The values are drawn from patent publication US8143254B2, “Methods for modulating ion channels” (Cornell Research Foundation, Inc., priority 2005, dated 2012).
